Experimental findings from PubChem BioAssay (NCI) are described below.

Holding throughout (assay): NCI tumour cell line growth inhibition, 48 h
The subject of assay [1] is SNB-75 CNS.
For assay [2], the system named is NCI-H460 lung.
Assay [3] relates to A498 renal.
Assay [4] concerns ACHN renal.
The test system of assay [5] is HS 578T breast.
Assay [6] concerns MDA-MB-231 breast.
The test system of assay [7] is SK-MEL-2 melanoma.
The test system of assay [8] is OVCAR-4 ovarian.
The test system of assay [9] is OVCAR-8 ovarian.
In assay [10] the test system is M14 melanoma.

The structures appear in SMILES notation.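 Test compounds were applied to cells in 96-well plates for 48 hours at 5 doses. GI50 = concentration required for 50% inhibition of growth. TGI denotes the concentration required for complete inhibition of growth.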 A value given as a limit tells only on which side of the number the result lay.

Take `Cc1cc([C@H](C)Nc2nccc(N3C(=O)OC[C@@H]3[C@H](C)F)n2)ncc1-c1ccnc(C(F)(F)F)c1`: the GI50 was 88.2 µM in assay [1]; 37.4 µM in assay [2]; 15.6 µM in assay [3]; 24.7 µM in assay [4]; 39.2 µM in assay [5]; 34.5 µM in [6]. For the same compound, the GI50 is 40.2 µM in assay [7], 31.2 µM in assay [8], 33.5 µM in [9] and 37.7 µM in [10]. In addition, the TGI in assay [1] is over 100 µM; in assay [2], over 100 µM; in assay [3], 92.1 µM; in assay [4], over 100 µM; in [5], over 100 µM; in [6], over 100 µM. Further, the TGI in assay [7], in assay [8], in [9] and in assay [10] was over 100 µM throughout.

Consider `CCCCCCCCCCCCCCCCCCNC(=O)[C@H]1CSC(c2ccc(F)c(OC)c2)N1` (some centres undefined), for which the GI50 in [1] was 0.87 µM; in assay [2] it was 0.211 µM; in assay [3], over 50 µM; in assay [4], 2.71 µM; in assay [5], 1.24 µM; in [6] it was 0.842 µM. Further, the GI50 in assay [7] is 0.887 µM; in assay [8] it was 1.38 µM; in [9], 0.976 µM; in assay [10], 0.713 µM. For the same compound, the TGI in [1] was 1.63 µM; in assay [2] it was 0.824 µM; in assay [3], over 50 µM; in [4], over 50 µM; in assay [5], 2.97 µM; in assay [6], 1.67 µM. For the same compound, the TGI is 1.67 µM in assay [7], 3.62 µM in assay [8], 2.7 µM in assay [9] and 1.47 µM in [10].

Consider `NCCNc1nc2ccccc2c2c(=O)c3cc(F)cc(Cl)c3sc12`, for which the GI50 was 1.27 µM in [1]; 1.7 µM in assay [2]; 1.56 µM in [3]; 1.63 µM in assay [4]; 1.63 µM in [5]; 1.48 µM in [6]. The GI50 in [7] was 1.82 µM; in assay [8] it was 1.7 µM; in [9], 1.61 µM; in assay [10], 1.65 µM. In addition, the TGI in assay [1] stood at 2.56 µM; in [2], 3.25 µM; in assay [3], 3.31 µM; in assay [4] it was 2.99 µM; in assay [5], 3.7 µM; in assay [6] it was 2.93 µM. The TGI turned out to be 3.6 µM in [7], 3.41 µM in assay [8], 3.57 µM in assay [9] and 3.03 µM in assay [10].

On to `CC(C)c1ccc2c(c1)c(SC(C)(C)C)c(CC(C)(C)C(=O)O)n2Cc1ccc(Cl)cc1`, for which the GI50 in assay [1] was 9.76 µM; in assay [2], 4.23 µM; in [3] it was 10.8 µM; in assay [4] it was 11.6 µM; in [5], 11.4 µM; in assay [6] it was 12.6 µM. Further, the GI50 in assay [7] is 7.5 µM; in assay [8] it was 16.9 µM; in assay [9], 6.81 µM; in assay [10] it was 16.3 µM. Besides, the TGI was found to be 22.3 µM in [1]; 16.2 µM in assay [2]; 23.3 µM in [3]; 24.3 µM in [4]; 29.4 µM in [5]; 27.3 µM in [6]. Further, the TGI is 20.1 µM in [7], 49 µM in assay [8], 19.6 µM in [9] and 36.5 µM in assay [10].

`COc1ccc(-c2conc2-c2ccccc2)cc1`: the GI50 in assay [1] is 0.109 µM; in assay [2], 0.324 µM; in [3], 0.107 µM; in [4], 1.1 µM; in assay [5], 0.267 µM; in [6], 0.615 µM. For the same compound, the GI50 is 0.585 µM in [7], 2.35 µM in [8], 0.604 µM in assay [9] and 0.268 µM in assay [10]. Besides, the TGI was 0.455 µM in [1]; 4.37 µM in assay [2]; 0.58 µM in [3]; over 100 µM in assay [4]; over 27.5 µM in assay [6]; over 100 µM in assay [7]. Also, the TGI in [8], in [9] and in [10] was over 100 µM throughout.

In the case of `COc1ccc2c(c1)c(-c1cc(-c3cn(C)c4ccc(OC)cc34)[nH]n1)cn2C`, the GI50 in assay [1], in assay [2], in assay [3], in assay [4], in [5] and in [6] was over 100 µM throughout. The GI50 in assay [7], in assay [8], in assay [9] and in assay [10] was over 100 µM throughout. Also, the TGI in assay [1], in assay [2], in assay [3], in assay [4], in assay [5] and in [6] was over 100 µM in each case. In addition, the TGI in [7], in assay [8], in assay [9] and in [10] was over 100 µM in each case.

As for `Cc1nc2cc(Nc3nc(Nc4ccc(F)cc4)nc(-c4ccc(Cl)cc4)n3)ccc2n1Cc1ccccc1`, the GI50 in assay [1] was 2.2 µM; in assay [2], 6.42 µM; in [3] it was 4.54 µM; in assay [4], 3.89 µM; in assay [5], 12.2 µM; in assay [6], 9.97 µM. The GI50 is 4.07 µM in [7], 2.86 µM in assay [8], 3.93 µM in [9] and 4.42 µM in [10]. The TGI is 10.5 µM in [1]; over 100 µM in [2]; over 100 µM in assay [3]; over 100 µM in [4]; over 100 µM in assay [5]; over 100 µM in assay [6]. Moreover, the TGI was 41.1 µM in [7], 17.6 µM in assay [8], 22 µM in [9] and over 100 µM in assay [10].

Consider `C/C(N=NC(=S)N1CCCCCC1)=C1\C=CC=CN1O`, for which the TGI in assay [1] was 72.7 µM; in assay [2] it was 31.3 µM; in assay [3], 92.1 µM; in [4], 67.6 µM; in assay [5], over 100 µM; in assay [6], over 100 µM. In addition, the TGI in assay [7] is 18.8 µM; in assay [8], over 100 µM; in [9], over 49.4 µM; in [10], 38.8 µM.
